From US12729377B2, “RNAi agents and compositions for inhibiting expression of angiopoietin-like 3 (ANGPTL3), and methods of use” (Arrowhead Pharmaceuticals, Inc., priority 2017, dated 2026)
In the oligonucleotide strings, read from the 5' end, every base follows the letter of its sugar. An asterisk marks phosphorothioate; unmarked linkages are phosphodiester. Other units and linkages are bracketed, terminal groups are in braces. A string of capitals states the bases alone. {NAG37} = tridentate N-acetyl-galactosamine targeting ligand, structure (NAG37)s; [invAb] = inverted abasic unit; m = 2'-O-methyl; f = 2'-fluoro

Legend:
[1] = tested on: ANGPTL3 gene; experiment: Example 11: dose response, serum triglycerides in mice; type: in vivo, C57bl/6 mice
Procedure: To assess the dose response of ANGPTL3 RNAi agent AD05488, six- to eight-week-old female C57bl/6 mice were used. Pre-dose serum samples were taken at day −1 after a four hour fast. At day 1, each mouse was given a single subcutaneous administration of 200 μl containing the respective mg/kg dose of an ANGPTL3 RNAi agent in D5W (dextrose in 5% water), or control (D5W) with no RNAi agent, according to the dosing groups recited in Table 53:
The RNAi agent tested (AD05488) included a modified sequence and an N-acetyl-galactosamine-containing targeting ligand conjugated to the 5′ terminal end of the sense strand. (See Tables 3, 4, and 5 for modified sequences and targeting ligand structures). The injections were performed between the skin and muscle (i.e. subcutaneous injections) into the loose skin over the neck and shoulder area. Four (4) mice in each group were tested (n=4). Serum was collected on days 8, 15, 22, and 29. Mice were fasted for four hours prior to each collection. ANGPTL3 protein levels in serum were measured by ELISA assay (R&D Systems), according to the manufacturer's recommendations. Triglycerides, total cholesterol, high-density lipoprotein (HDL), and low-density lipoprotein (LDL) in serum were measured on a Cobas® Integra 400 (Roche Diagnostics), according to the manufacturer's recommendations.
The ANGPTL3 protein levels, triglyceride levels, total cholesterol levels, HDL levels, and LDL levels for each animal were normalized. For normalization, the level of ANGPTL3 protein, triglyceride, HDL, and total cholesterol, respectively, for each animal at a time point, was divided by the pre-treatment level of expression in that animal (in this case at day −1) to determine the ratio of expression “normalized to pre-treatment.” Expression at a specific time point was then normalized to the D5W control group by dividing the “normalized to pre-treatment” ratio for an individual animal by the mean “normalized to pretreatment” ratio of all mice in the D5W control group.

[2] = tested on: ANGPTL3 protein; experiment: Example 14: RNAi agent and statin, serum ANGPTL3 protein by ELISA in LDLR knockout mice; type: in vivo, LDLR KO mice
Text: To evaluate the effect of co-administration of RNAi agents and statins in a disease model, LDLR KO mice were commercially obtained (The Jackson Laboratory). For three weeks prior to the onset of the study, forty-one (41) male 7 to 8 week old LDLR KO mice were placed on a high fat (“western”) diet (Teklad Custom Diets TD.88137), and remained on that diet throughout the duration of the study. Pre-dose serum samples were taken on study Day 1 after a four hour fast. The dosing regimen for the study is recited in the following Table 72:
• Mice were treated at 40 mg/kg for the first 11 days, then switched to 20 mg/kg thereafter.
The vehicle used for the oral gavage in the study was a 1:1 mixture of Ora-Plus®: Ora-Sweet® solution, which were acquired commercially. For the preparation of the atorvastatin oral gavage administrations, the respective desired dose of atorvastatin was first dissolved in sterile water (0.3 mL water per 1 mL of desired formulation) and vortexed until smooth, followed by the addition of a mixture of 1:1 Ora-Plus®: Ora-Sweet® solution (0.7 mL vehicle per 1 mL of desired formulation) and vortexed. On day 1 and for each day thereafter an oral gavage dose was administered for each of the Groups except for Group 2. On Day 23, Groups 1, 2, 3, and 4 received a single subcutaneous administration of 2.5 mg/kg dose ([…] solution) of an ANGPTL3 RNAi agent in D5W (dextrose in 5% water), or vehicle control (D5W) with no RNAi agent.
The RNAi agent tested (AD05488) included a modified sequence and an N-acetyl-galactosamine-containing targeting ligand conjugated to the 5′ terminal end of the sense strand. (See Tables 3, 4, and 5 for modified sequences and targeting ligand structures). The injections were performed between the skin and muscle (i.e. subcutaneous injections) into the loose skin over the neck and shoulder area. Serum was collected on days 8, 15, 22 (pre-RNAi agent injection), 29, 36, 43, and 50. LDLR KO mice were fasted for four hours prior to each collection.
ANGPTL3 protein levels in serum were measured by ELISA assay (R&D Systems), according to the manufacturer's recommendations. Among other biomarkers, triglycerides, total cholesterol, and low-density lipoprotein (LDL) in serum were measured on a Cobas® Integra 400 (Roche Diagnostics), according to the manufacturer's recommendations.
The ANGPTL3 protein levels, triglyceride levels, total cholesterol levels, HDL levels, and LDL levels for each animal were normalized. For normalization, respective levels of ANGPTL3 protein, TG, total cholesterol, or LDL for each animal at a time point was divided by the pre-treatment level of expression in that animal (in this case pre-dose levels on Day 1) to determine the ratio of expression “normalized to pre-treatment.” Data from the study set forth in this Example are shown in the following Tables 73-76: […]

## AD05488: RNAi agent duplex: antisense AM07235-AS, sense AM07234-SS (antisense mU*fA*mC*fUmGfAmUfCmAfAmAfUmAfUmGfUmUfGmAfG*mC; sense {NAG37}*[invAb]*mGmCmUmCmAmAmCmAfUfAfUmUmUmGmAmUmCmAmGmUmA*[invAb])
[1]; 0.05 mg/kg single sc day 1, Day 8
  Avg TG (Triglycerides) Normalized to Pre-Treatment and Control: 1.296
[1]; 0.05 mg/kg single sc day 1, Day 15
  Avg TG (Triglycerides) Normalized to Pre-Treatment and Control: 1.274
[1]; 0.05 mg/kg single sc day 1, Day 22
  Avg TG (Triglycerides) Normalized to Pre-Treatment and Control: 1.202
[1]; 0.05 mg/kg single sc day 1, Day 29
  Avg TG (Triglycerides) Normalized to Pre-Treatment and Control: 1.999
[1]; 0.1 mg/kg single sc day 1, Day 8
  Avg TG (Triglycerides) Normalized to Pre-Treatment and Control: 1.116
[1]; 0.1 mg/kg single sc day 1, Day 15
  Avg TG (Triglycerides) Normalized to Pre-Treatment and Control: 1.141
[1]; 0.1 mg/kg single sc day 1, Day 22
  Avg TG (Triglycerides) Normalized to Pre-Treatment and Control: 1.234
[1]; 0.1 mg/kg single sc day 1, Day 29
  Avg TG (Triglycerides) Normalized to Pre-Treatment and Control: 1.798
[1]; 0.5 mg/kg single sc day 1, Day 8
  Avg TG (Triglycerides) Normalized to Pre-Treatment and Control: 1.028
[1]; 0.5 mg/kg single sc day 1, Day 15
  Avg TG (Triglycerides) Normalized to Pre-Treatment and Control: 1.027
[1]; 0.5 mg/kg single sc day 1, Day 22
  Avg TG (Triglycerides) Normalized to Pre-Treatment and Control: 0.864
[1]; 0.5 mg/kg single sc day 1, Day 29
  Avg TG (Triglycerides) Normalized to Pre-Treatment and Control: 1.855
[1]; 1.0 mg/kg single sc day 1, Day 8
  Avg TG (Triglycerides) Normalized to Pre-Treatment and Control: 0.860
[1]; 1.0 mg/kg single sc day 1, Day 15
  Avg TG (Triglycerides) Normalized to Pre-Treatment and Control: 0.755
[1]; 1.0 mg/kg single sc day 1, Day 22
  Avg TG (Triglycerides) Normalized to Pre-Treatment and Control: 0.720
[1]; 1.0 mg/kg single sc day 1, Day 29
  Avg TG (Triglycerides) Normalized to Pre-Treatment and Control: 1.254
[1]; 2.5 mg/kg single sc day 1, Day 8
  Avg TG (Triglycerides) Normalized to Pre-Treatment and Control: 0.623
[1]; 2.5 mg/kg single sc day 1, Day 15
  Avg TG (Triglycerides) Normalized to Pre-Treatment and Control: 0.556
[1]; 2.5 mg/kg single sc day 1, Day 22
  Avg TG (Triglycerides) Normalized to Pre-Treatment and Control: 0.447
[1]; 2.5 mg/kg single sc day 1, Day 29
  Avg TG (Triglycerides) Normalized to Pre-Treatment and Control: 0.772
[1]; 5.0 mg/kg single sc day 1, Day 8
  Avg TG (Triglycerides) Normalized to Pre-Treatment and Control: 0.923
[1]; 5.0 mg/kg single sc day 1, Day 15
  Avg TG (Triglycerides) Normalized to Pre-Treatment and Control: 0.892
[1]; 5.0 mg/kg single sc day 1, Day 22
  Avg TG (Triglycerides) Normalized to Pre-Treatment and Control: 0.781
[1]; 5.0 mg/kg single sc day 1, Day 29
  Avg TG (Triglycerides) Normalized to Pre-Treatment and Control: 1.128
[2]; Group 2: no gavage, 2.5 mg/kg AD05488 SC on day 23, Day 8 (pre-RNAi agent injection)
  Avg ANGPTL3 normalized to pre-treatment: 1.419
[2]; Group 2: no gavage, 2.5 mg/kg AD05488 SC on day 23, Day 15 (pre-RNAi agent injection)
  Avg ANGPTL3 normalized to pre-treatment: 1.584
[2]; Group 2: no gavage, 2.5 mg/kg AD05488 SC on day 23, Day 22 (pre-RNAi agent injection)
  Avg ANGPTL3 normalized to pre-treatment: 1.658
[2]; Group 2: no gavage, 2.5 mg/kg AD05488 SC on day 23, Day 29
  Avg ANGPTL3 normalized to pre-treatment: 0.023
[2]; Group 2: no gavage, 2.5 mg/kg AD05488 SC on day 23, Day 36
  Avg ANGPTL3 normalized to pre-treatment: 0.012
[2]; Group 2: no gavage, 2.5 mg/kg AD05488 SC on day 23, Day 43
  Avg ANGPTL3 normalized to pre-treatment: 0.020
[2]; Group 2: no gavage, 2.5 mg/kg AD05488 SC on day 23, Day 50
  Avg ANGPTL3 normalized to pre-treatment: 0.026
[2]; Group 3: 10 mg/kg daily oral gavage atorvastatin, 2.5 mg/kg AD05488 on day 23, Day 8 (pre-RNAi agent injection)
  Avg ANGPTL3 normalized to pre-treatment: 1.597
[2]; Group 3: 10 mg/kg daily oral gavage atorvastatin, 2.5 mg/kg AD05488 on day 23, Day 15 (pre-RNAi agent injection)
  Avg ANGPTL3 normalized to pre-treatment: 1.765
[2]; Group 3: 10 mg/kg daily oral gavage atorvastatin, 2.5 mg/kg AD05488 on day 23, Day 22 (pre-RNAi agent injection)
  Avg ANGPTL3 normalized to pre-treatment: 1.681
[2]; Group 3: 10 mg/kg daily oral gavage atorvastatin, 2.5 mg/kg AD05488 on day 23, Day 29
  Avg ANGPTL3 normalized to pre-treatment: 0.015
[2]; Group 3: 10 mg/kg daily oral gavage atorvastatin, 2.5 mg/kg AD05488 on day 23, Day 36
  Avg ANGPTL3 normalized to pre-treatment: 0.005
[2]; Group 3: 10 mg/kg daily oral gavage atorvastatin, 2.5 mg/kg AD05488 on day 23, Day 43
  Avg ANGPTL3 normalized to pre-treatment: 0.007
[2]; Group 3: 10 mg/kg daily oral gavage atorvastatin, 2.5 mg/kg AD05488 on day 23, Day 50
  Avg ANGPTL3 normalized to pre-treatment: 0.010
[2]; Group 4: 20 mg/kg* daily oral gavage atorvastatin (40 mg/kg first 11 days), 2.5 mg/kg AD05488 on day 23, Day 8 (pre-RNAi agent injection)
  Avg ANGPTL3 normalized to pre-treatment: 1.683
[2]; Group 4: 20 mg/kg* daily oral gavage atorvastatin (40 mg/kg first 11 days), 2.5 mg/kg AD05488 on day 23, Day 15 (pre-RNAi agent injection)
  Avg ANGPTL3 normalized to pre-treatment: 1.999
[2]; Group 4: 20 mg/kg* daily oral gavage atorvastatin (40 mg/kg first 11 days), 2.5 mg/kg AD05488 on day 23, Day 22 (pre-RNAi agent injection)
  Avg ANGPTL3 normalized to pre-treatment: 1.675
[2]; Group 4: 20 mg/kg* daily oral gavage atorvastatin (40 mg/kg first 11 days), 2.5 mg/kg AD05488 on day 23, Day 29
  Avg ANGPTL3 normalized to pre-treatment: 0.022
[2]; Group 4: 20 mg/kg* daily oral gavage atorvastatin (40 mg/kg first 11 days), 2.5 mg/kg AD05488 on day 23, Day 36
  Avg ANGPTL3 normalized to pre-treatment: 0.004
[2]; Group 4: 20 mg/kg* daily oral gavage atorvastatin (40 mg/kg first 11 days), 2.5 mg/kg AD05488 on day 23, Day 43
  Avg ANGPTL3 normalized to pre-treatment: 0.005
[2]; Group 4: 20 mg/kg* daily oral gavage atorvastatin (40 mg/kg first 11 days), 2.5 mg/kg AD05488 on day 23, Day 50
  Avg ANGPTL3 normalized to pre-treatment: 0.010
[2]; single 2.5 mg/kg subcutaneous on Day 23, LDLR KO mice on high fat diet
  reduction in ANGPTL3 protein levels: clear reduction
